Test results reported in article PMC5618672, “Rationally designed ligand‐independent peptide inhibitors of TREM‐1 ameliorate collagen‐induced arthritis” (Journal of Cellular and Molecular Medicine, 2017).

What was measured:
[1] = test system: joints of mice with CIA; assay: Histology assessment of joints in CIA; type: in vivo, mouse (DBA/1); design: dose or concentration left out as unconfirmed
Protocol: Animal studies were performed by Bolder BioPATH (Boulder, CO, USA). CIA was induced in male 6‐ to 7‐week‐old DBA/1 mice by immunization with bovine type II collagen as previously described 19. Briefly, mice were injected intradermally with 100 μl of Freund's complete adjuvant containing 250 μg of bovine type II collagen (2 mg/ml final concentration) at the base of the tail on day 0 and again on day 21. On day 24, mice were randomized by body weight into treatment groups. At enrolment on day 24, the mean mouse weight was 20 g. Arthritis onset occurred on days 26‐38. Starting day 24, mice were injected intraperitoneally ([…]), GF9‐sHDL (2.5 mg/kg), GA/E31‐dHDL ([…]), GA/E31‐sHDL ([…]) or with PBS. Mice were weighed on study days 24, 26, 28, 30, 32, 34, 36 and 38 (prior to necropsy). Daily clinical scores were given on a scale of 0–5 for each of the paws on days 24–38 using previously described criteria 19. […]
At the end of study, fore paws, hind paws and knees were harvested, fixed in 10% neutral buffered formalin for 1–2 days, and then decalcified in 5% formic acid for 4–5 days before standard processing for paraffin embedding. […] The joints were then assessed using 0–5 scale for inflammation, pannus formation, cartilage damage, bone resorption and periosteal new bone formation as previously reported 19. A summed histopathology score (sum of five parameters, 0–25 scale) was also determined.

[2] = test system: mice with CIA; assay: Collagen‐induced arthritis (CIA) model, clinical arthritis score; type: in vivo, mouse (DBA/1); conditions: 0.1 mg/kg, positive control; data not shown
Protocol: Animal studies were performed by Bolder BioPATH (Boulder, CO, USA). CIA was induced in male 6‐ to 7‐week‐old DBA/1 mice by immunization with bovine type II collagen as previously described 19. Briefly, mice were injected intradermally with 100 μl of Freund's complete adjuvant containing 250 μg of bovine type II collagen (2 mg/ml final concentration) at the base of the tail on day 0 and again on day 21. On day 24, mice were randomized by body weight into treatment groups. At enrolment on day 24, the mean mouse weight was 20 g. Arthritis onset occurred on days 26‐38. Starting day 24, mice were injected intraperitoneally (i.p.) daily for 14 consecutive days with GF9 (2.5 and 25 mg/kg), GF9‐G (25 mg/kg), GF9‐dHDL (2.5 mg/kg), GF9‐sHDL (2.5 mg/kg), GA/E31‐dHDL (dose equivalent to 4 mg of GF9/kg), GA/E31‐sHDL (dose equivalent to 4 mg of GF9/kg) or with PBS. Mice were weighed on study days 24, 26, 28, 30, 32, 34, 36 and 38 (prior to necropsy). Daily clinical scores were given on a scale of 0–5 for each of the paws on days 24–38 using previously described criteria 19. On day 38, mice were killed for necropsy.

C[C@@H]1C[C@H]2[C@@H]3CCC4=CC(=O)C=C[C@]4(C)[C@@]3(F)[C@@H](O)C[C@]2(C)[C@@]1(O)C(=O)CO [dexamethasone]
joint lesions (histopathology) ([1]; arthritic mice, day 38, not shown): No lesions were observed
reduction of summed histopathology scores compared to vehicle‐treated mice ([1]; data not shown): 99%
anti‐arthritic effect relative to GF9 at 25 mg/kg [2]: comparable
